Laboratory results: patent US4431665A, “Acylated laidlomycin derivatives” (priority 1980, dated 1984)

What was measured:
[1] = tested on: rumen microorganisms (mixed microbial population of rumen contents); experiment: Enhancement of intraruminal propionic acid production, batch culture fermentation of rumen contents; format: cell-based, bovine (rumen-fistulated); conditions: 9 h, 39° C.
Procedure: Enhancement of intraruminal propionic acid production is determined using a batch culture fermentation system. Rumen contents from a rumen-fistulated bovine are mixed with an equal amount of buffer which contains mineral, energy and nitrogen sources required for continued growth and metabolism of the mixed microbial population. Aliquots of this inoculum then are transferred to incubation vessels containing appropriate amounts of sodium laidlomycin (Na L.) (see Example 1A), and L. butyrate (L.C4) (prepared according to the procedure of Example 1A). After 9 hours of incubation at 39° C., concentrations of individual volatile fatty acids in each incubation vessel are determined by gas-liquid chromatography. The net production of each individual volatile fatty acid (acetic [AA], propionic [PA] and butyric [BA]) is calculated as the difference between the concentration after incubation and the concentration before incubation. The molar percentage of propionic acid produced is calculated from the following equation: [formula]
The comparative activities of sodium laidlomycin (Na L.) and the laidlomycin butyrate upon propionic acid and lactic acid production are set forth in Tables 1 and 2 where the concentration is in micrograms per ml (μg/ml).
(§1) The procedure of Example 2 was followed to compare laidlomycin (L.), sodium L. (Na L.), L.-propionate (L.C3), L. butyrate (L.C4), L. isobutyrate (L. isoC4), L. pentanoate (L.C5) and L. hexanoate (L.C6).
(§2) The procedure of Example 2 was followed to compare the activities of L. heptanoate (L. C7), L. octanoate (L. C8), L. decanoate (L. C10) and L. dodecanoate (L. C12) in increasing propionic acid production and inhibiting lactic acid production.
(§3) The procedure of Example 2 was followed to compare the activities of laidlomycin (L.) acetate (L. C2), L. pentanoate (L. C5), L. stearate (L. C18), L. cyclobutylcarboxylate, L. cyclopentylcarboxylate, L. cyclohexylcarboxylate and L. cyclopropylcarboxylate.

[2] = tested on: rumen contents (lactic acid accumulation); experiment: Inhibition of lactic acid accumulation, second batch culture fermentation of rumen contents with glucose; format: cell-based, bovine (rumen fistulated); conditions: 6 h, 39° C.; for Lactic Acid Accumulation: Table 6, 0 μg/ml: 36.65; for Lactic Acid Accumulation (μ mol/ml): Table 8, 0 μg/ml: 40.47
Procedure: Inhibition of lactic acid accumulation is determined using a second batch culture fermentation system. Rumen contents from a rumen fistulated bovine are mixed with an equal amount of buffer which contains a 150 mM concentration of glucose. Following 6 hours of incubation at 39° C., lactic acid produced in the fermentation is analyzed by a specific enzymatic assay. The concentration of lactic acid in the fermentation broth is quantified by the increase in absorbance of light at […] when nicotinamide adenine dinucleotide is reduced by lactic acid with the aid of lactate dehydrogenase. […]
as §1, §2, §3

[3] = Table 5, 1.25 μg/ml, 0 μg/ml: 35.5
[4] = Table 5, 2.5 μg/ml, 0 μg/ml: 35.5
[5] = Table 5, 5 μg/ml, 0 μg/ml: 35.5
[6] = Table 5, 10 μg/ml, 0 μg/ml: 35.5
[7] = Table 5, 20 μg/ml, 0 μg/ml: 35.5
[8] = Table 5, .31 μg/ml, 0 μg/ml: 35.5
[9] = Table 5, .63 μg/ml, 0 μg/ml: 35.5

Compound	% Propionic Acid [1, 3] [%]	% Propionic Acid [1, 4] [%]	% Propionic Acid [1, 5] [%]	% Propionic Acid [1, 6] [%]	% Propionic Acid [1, 7] [%]	% Propionic Acid [1, 8] [%]	% Propionic Acid [1, 9] [%]	Lactic Acid Accumulation ([2]; 1.25 μg/ml) [µmol/mL]	Lactic Acid Accumulation ([2]; 2.5 μg/ml) [µmol/mL]	Lactic Acid Accumulation ([2]; 5 μg/ml) [µmol/mL]	Lactic Acid Accumulation ([2]; 10 μg/ml) [µmol/mL]	Lactic Acid Accumulation ([2]; 20 μg/ml) [µmol/mL]	Lactic Acid Accumulation ([2]; .31 μg/ml) [µmol/mL]	Lactic Acid Accumulation ([2]; .63 μg/ml) [µmol/mL]	also measured
CCCCCCC(=O)OCC1(O)OC(C2CC(C)C(C3(C)CCC(C4(C)CCC5(CC(O)C(C)C(C(C)C(OC(=O)CC)C(C)C(=O)O)O5)O4)O3)O2)C(C)CC1C (stereo not drawn) [L. C7, laidlomycin heptanoate]	46.2	46.9	48.4	48.1	47.2	41.4	45.3	1.90	1.32	1.16	1.46	1.94	38.37	14.12	
CCCCCCCC(=O)OCC1(O)OC(C2CC(C)C(C3(C)CCC(C4(C)CCC5(CC(O)C(C)C(C(C)C(OC(=O)CC)C(C)C(=O)O)O5)O4)O3)O2)C(C)CC1C (stereo not drawn) [L. C8, laidlomycin octanoate]	46.4	47.3	48.2	47.5	49.4	42.7	43.9	1.21	1.31	1.27	1.39	2.14	41.96	9.41	
CCCCCCCCCC(=O)OCC1(O)OC(C2CC(C)C(C3(C)CCC(C4(C)CCC5(CC(O)C(C)C(C(C)C(OC(=O)CC)C(C)C(=O)O)O5)O4)O3)O2)C(C)CC1C (stereo not drawn) [L. C10, laidlomycin decanoate]	45.5	47.1	46.7	46.6	48.1	39.9	43.6	0.84	1.20	0.94	0.94	0.96	36.86	30.78	
CCCCCCCCCCCC(=O)OCC1(O)OC(C2CC(C)C(C3(C)CCC(C4(C)CCC5(CC(O)C(C)C(C(C)C(OC(=O)CC)C(C)C(=O)O)O5)O4)O3)O2)C(C)CC1C (stereo not drawn) [L. C12, laidlomycin dodecanoate]	45.3	46.1	46.8	47.7	48.0	42.0	43.8	11.19	1.04	3.32	2.16	1.65	34.90	38.01	
CCCCCCCCCCCCCCCCCC(=O)OCC1(O)OC(C2CC(C)C(C3(C)CCC(C4(C)CCC5(CC(O)C(C)C(C(C)C(OC(=O)CC)C(C)C(=O)O)O5)O4)O3)O2)C(C)CC1C (stereo not drawn) [L. C18, laidlomycin stearate]															% Propionic Acid ([1]; Table 7, 1.25 μg/ml, 0 μg/ml: 36.1): 40.0%; % Propionic Acid ([1]; Table 7, 2.5 μg/ml, 0 μg/ml: 36.1): 41.6%; % Propionic Acid ([1]; Table 7, 5 μg/ml, 0 μg/ml: 36.1): 44.6%; % Propionic Acid ([1]; Table 7, 10 μg/ml, 0 μg/ml: 36.1): 45.5%; % Propionic Acid ([1]; Table 7, 20 μg/ml, 0 μg/ml: 36.1): 45.8%; % Propionic Acid ([1]; Table 7, .313 μg/ml, 0 μg/ml: 36.1): 37.1%; % Propionic Acid ([1]; Table 7, .625 μg/ml, 0 μg/ml: 36.1): 37.6%; Lactic Acid Accumulation (μ mol/ml) ([2]; 1.25 μg/ml): 48.87 μ mol/ml; Lactic Acid Accumulation (μ mol/ml) ([2]; 2.5 μg/ml): 52.51 μ mol/ml; Lactic Acid Accumulation (μ mol/ml) ([2]; 5 μg/ml): 46.20 μ mol/ml; Lactic Acid Accumulation (μ mol/ml) ([2]; 10 μg/ml): 37.83 μ mol/ml; Lactic Acid Accumulation (μ mol/ml) ([2]; 20 μg/ml): 29.93 μ mol/ml; Lactic Acid Accumulation (μ mol/ml) ([2]; .313 μg/ml): 50.29 μ mol/ml; Lactic Acid Accumulation (μ mol/ml) ([2]; .625 μg/ml): 52.57 μ mol/ml
CCC(=O)OC(C(C)C(=O)O)C(C)C1OC2(CCC(C)(C3CCC(C)(C4OC(C5OC(O)(COC(=O)C(C)C)C(C)CC5C)CC4C)O3)O2)CC(O)C1C (stereo not drawn) [L. iso C4, laidlomycin isobutyrate]															% Propionic Acid ([1]; Table 3, 1.25 μg/ml, 0 μg/ml: 28.5): 39.6%; % Propionic Acid ([1]; Table 3, 5 μg/ml, 0 μg/ml: 28.5): 43.9%; % Propionic Acid ([1]; Table 3, 20 μg/ml, 0 μg/ml: 28.5): 47.5%; % Propionic Acid ([1]; Table 3, .31 μg/ml, 0 μg/ml: 28.5): 34.3%; activity at 1.25 µg/mL ([2]; Bos taurus, read-out: Accumulation of Lactic Acid - % of Control, Table 4, 1.25 μg/ml): 12%; activity at 5 µg/mL ([2]; Bos taurus, read-out: Accumulation of Lactic Acid - % of Control, Table 4, 5 μg/ml): 13%; activity at 20 µg/mL ([2]; Bos taurus, read-out: Accumulation of Lactic Acid - % of Control, Table 4, 20 μg/ml): 16%; activity at 0.31 µg/mL ([2]; Bos taurus, read-out: Accumulation of Lactic Acid - % of Control, Table 4, .31 μg/ml): 37%
